Laboratory results as given in US20230203044A1, “PYRAZOLO[1,5-D][1,2,4]TRIAZINE-5(4H)-ACETAMIDES AS INHIBITORS OF THE NLRP3 INFLAMMASOME” (JANSSEN PHARMACEUTICA NV, priority 2020, published 2023).

Columns and labels:
TNF = experiment: PBMC assay: TNF cytokine levels in LPS-stimulated human PBMCs (MSD); assay type: cell-based; settings: 100 ng/ml LPS for 6 hrs, TNF in supernatant via MSD
Method: (§1) Peripheral venous blood was collected from healthy individuals and human peripheral blood mononuclear cells (PBMCs) were isolated from blood by Ficoll-Histopaque (Sigma-Aldrich, A0561) density gradient centrifugation. After isolation, PBMCs were stored in liquid nitrogen for later use. Upon thawing, PBMC cell viability was determined in growth medium (RPMI media supplemented with 10% fetal bovine serum, 1% Pen-Strep and 1% L-glutamine). Compounds were spotted in a 1:3 serial dilution in DMSO and diluted to the final concentration in 30 μl medium in 96 well plates (Falcon, 353072). PBMCs were added at a density of 7.5×10^4 cells per well and incubated for 30 min in a 5% CO2 incubator at 37° C. LPS stimulation was performed by addition of 100 ng/ml LPS (final concentration, Invivogen, tlrl-smlps) for 6 hrs followed by collection of cellular supernatant and the analysis of IL-1β (μM) and TNF cytokines levels (μM) via MSD technology according to manufacturers' guidelines (MSD, K151A0H).
The IC50 values (for IL-1β) and EC50 values (TNF) were obtained on compounds of the invention/examples, and are depicted in the following table: […]

NLRP3 inflammasome = experiment: PBMC assay: IL-1β in LPS-stimulated human PBMCs (MSD); assay type: cell-based; settings: human PBMCs, 100 ng/ml LPS for 6 hrs, IL-1β in supernatant via MSD, read-out: IL1β IC50
Method: The activity of a compound according to the present invention can be assessed by in vitro methods.
as §1, with “Compounds were spotted in a 1:3 serial dilution in DMSO and diluted to the final concentration in 30 μl medium in 96 well plates (Falcon, 353072).” left out

CC(C)c1nn(CC(=O)Nc2ccncc2)c(=O)c2cc(C3CC3)nn12 [Final Cpd 118] showed an EC50 (TNF) greater than 10000 nM and an IC50 (NLRP3 inflammasome) of 110 nM.
In the case of COc1ccc(-c2nn(CC(=O)N[C@H]3C[C@@](C)(O)C3)c(=O)c3cc(C4CC4)nn23)cc1 [Final Cpd 199, 2-(2-cyclopropyl-7-(4-methoxyphenyl)-4-oxopyrazolo [1,5-d] [1,2,4]triazin-5(4H)-yl)-N-((1 s,3 s)-3-hydroxy-3-methylcyclobutyl)acetamide], the EC50 (TNF) is reported as greater than 10000 nM and the IC50 (NLRP3 inflammasome) is reported as greater than 10000 nM.
CC(C)c1nn(CC(=O)Nc2ccncn2)c(=O)c2cc(C3CC3)nn12 [Final Cpd 11] gave an EC50 (TNF) greater than 10000 nM and an IC50 (NLRP3 inflammasome) of 170 nM.
In the case of CC(C)c1nn(CC(=O)N[C@H]2C[C@@](C)(O)C2)c(=O)c2c(N)c(C3CC3)nn12 [Final Cpd 181, 2-(3-amino-2-cyclopropyl-7-isopropyl-4-oxopyrazolo[1,5-d][1,2,4]triazin-5(4H)-yl)-N-((ls,3s)-3-hydroxy-3-methylcyclobutyl)acetamide], the EC50 (TNF) is reported as greater than 10000 nM and the IC50 (NLRP3 inflammasome) is reported as 480 nM.
Work on CC(C)c1nn(CC(=O)NC2CCOCC2)c(=O)c2cc(C3CC3)nn12 [Final Cpd 36] yielded an EC50 (TNF) greater than 10000 nM and an IC50 (NLRP3 inflammasome) of 970 nM.
With CC(C)c1nn(CC(=O)Nc2cc(C(F)(F)F)ncn2)c(=O)c2cc(C3CC3)nn12 [Final Cpd 83] the EC50 (TNF) was greater than 10000 nM and the IC50 (NLRP3 inflammasome) was greater than 10000 nM.
With Cc1c(NC(=O)Cn2nc(C(C)C)n3nc(C4CC4)cc3c2=O)ccnc1Cl [Final Cpd 124] the EC50 (TNF) was greater than 10000 nM and the IC50 (NLRP3 inflammasome) was 610 nM.
With Cc1nn(CC(=O)N[C@@H]2COC[C@@H]2CC(C)C)c(=O)c2cc(C3CC3)nn12 [Final Cpd 55] the EC50 (TNF) was greater than 10000 nM and the IC50 (NLRP3 inflammasome) was greater than 10000 nM.
Compound CC(C)c1nn(CC(=O)N[C@H]2C[C@@](C)(O)C2)c(=O)c2cc(NCC(F)(F)F)nn12 [Final Cpd 41] has an EC50 (TNF) greater than 10000 nM and an IC50 (NLRP3 inflammasome) of 880 nM.
Compound CC(C)c1nn2c(N(C)C)nn(CC(=O)Nc3ccncn3)c(=O)c2c1Br [Final Cpd 151] has an EC50 (TNF) greater than 10000 nM and an IC50 (NLRP3 inflammasome) greater than 10000 nM.
CC(C)c1nn(CC(=O)Nc2ccn3cnnc3c2)c(=O)c2cc(C3CC3)nn12 [Final Cpd 93] showed an EC50 (TNF) greater than 10000 nM and an IC50 (NLRP3 inflammasome) of 1510 nM.
Compound CC(C)c1nn(CC(=O)Nc2ccc3cn[nH]c3c2)c(=O)c2cc(C3CC3)nn12 [Final Cpd 126] has an EC50 (TNF) greater than 10000 nM and an IC50 (NLRP3 inflammasome) of 70 nM.
Compound Cc1nnc2cc(NC(=O)Cn3nc(C(C)C)n4nc(C5CC5)cc4c3=O)ccn12 [Final Cpd 94] has an EC50 (TNF) greater than 10000 nM and an IC50 (NLRP3 inflammasome) of 2340 nM.
Work on CC(C)c1nn(CC(=O)Nc2ccc(=O)n(C)n2)c(=O)c2cc(C3CC3)nn12 [Final Cpd 81] yielded an EC50 (TNF) greater than 10000 nM and an IC50 (NLRP3 inflammasome) of 160 nM.
CC(C)c1nn(CC(=O)Nc2ccc(I)nn2)c(=O)c2cc(C3CC3)nn12 [Final Cpd 173] showed an EC50 (TNF) greater than 10000 nM and an IC50 (NLRP3 inflammasome) greater than 10000 nM.
With Cc1cc2c(=O)n(CC(=O)Nc3ccncn3)nc(C(C)C)n2n1 [Final Cpd 17] the EC50 (TNF) was greater than 10000 nM and the IC50 (NLRP3 inflammasome) was 1100 nM.
In the case of CC[C@]1(O)C[C@@H](NC(=O)Cn2nc(C(C)C)n3nc(C4CC4)cc3c2=O)C1 [Final Cpd 192, 2-(2-cyclopropyl-7-isopropyl-4-oxopyrazolo[1,5-d][1,2,4]triazin-5(4H)-yl)-N-((1r,3s)-3-ethyl-3-hydroxycyclobutyl)acetamide], the EC50 (TNF) is reported as greater than 10000 nM and the IC50 (NLRP3 inflammasome) is reported as 610 nM.
In the case of CC(C)c1nn(CC(=O)Nc2ccn3c(F)cnc3c2)c(=O)c2cc(C3CC3)nn12 [Final Cpd 136], the EC50 (TNF) is reported as greater than 10000 nM and the IC50 (NLRP3 inflammasome) is reported as 1410 nM.
For CC(C)c1nn(CC(=O)N[C@@H]2CCC(=O)N(C)C2)c(=O)c2cc(C3CC3)nn12 [Final Cpd 30], the EC50 (TNF) was greater than 10000 nM and the IC50 (NLRP3 inflammasome) was 1430 nM.
Work on CCc1nn(CC(=O)Nc2ccccc2OC)c(=O)c2ccnn12 [Final Cpd 77] yielded an EC50 (TNF) greater than 10000 nM and an IC50 (NLRP3 inflammasome) greater than 10000 nM.
Compound Cc1nn(CC(=O)N[C@@H]2CCN(c3nc4cccnc4o3)C2)c(=O)c2cc(C3CC3)nn12 [Final Cpd 56] has an EC50 (TNF) greater than 10000 nM and an IC50 (NLRP3 inflammasome) of 6970 nM.
CC(C)c1nn(CC(=O)N[C@H]2C[C@@](C)(O)C2)c(=O)c2cc(C(C)(F)F)nn12 [Final Cpd 161] showed an EC50 (TNF) greater than 10000 nM and an IC50 (NLRP3 inflammasome) of 110 nM.
CCCCc1nn(CC(=O)Nc2ccc3nncn3c2)c(=O)c2cc(C3CC3)nn12 [Final Cpd 68] gave an EC50 (TNF) greater than 10000 nM and an IC50 (NLRP3 inflammasome) of 780 nM.
In the case of COC(=O)C12CC(NC(=O)Cn3nc(C)n4nc(C5CC5)cc4c3=O)(C1)C2 [Final Cpd 61], the EC50 (TNF) is reported as greater than 10000 nM and the IC50 (NLRP3 inflammasome) is reported as 64 nM.
In the case of CC(C)c1nn(CC(=O)N[C@H]2CCC(=O)N(CC3CC3)C2)c(=O)c2cc(C3CC3)nn12 [Final Cpd 27], the EC50 (TNF) is reported as greater than 10000 nM and the IC50 (NLRP3 inflammasome) is reported as 990 nM.
Compound CC(C)c1cc2c(=O)n(CC(=O)Nc3ccnnc3)nc(C(C)C)n2n1 [Final Cpd 144] has an EC50 (TNF) greater than 10000 nM and an IC50 (NLRP3 inflammasome) of 320 nM.
COc1ccc(NC(=O)Cn2nc(C(C)C)n3nc(C4CC4)cc3c2=O)cn1 [Final Cpd 111] showed an EC50 (TNF) greater than 10000 nM and an IC50 (NLRP3 inflammasome) of 830 nM.
Work on Cc1nn(CC(=O)N[C@H]2CCN(Cc3ccncc3)C2)c(=O)c2cc(C3CC3)nn12 [Final Cpd 59] yielded an EC50 (TNF) greater than 10000 nM and an IC50 (NLRP3 inflammasome) greater than 10000 nM.
With Cc1cc(NC(=O)Cn2nc(C(C)C)n3nc(C4CC4)cc3c2=O)c(C)cn1 [Final Cpd 104] the EC50 (TNF) was greater than 10000 nM and the IC50 (NLRP3 inflammasome) was 1620 nM.
Compound CC(C)c1nn(CC(=O)N[C@@H]2CCCN(CC(F)(F)F)C2)c(=O)c2cc(C3CC3)nn12 [Final Cpd 189, (R)-2-(2-cyclopropyl-7-isopropyl-4-oxopyrazolo[1,5-d][1,2,4]triazin-5(4H)-yl)-N-(1-(2,2,2-trifluoroethyl)piperidin-3-yl)acetamide] has an EC50 (TNF) greater than 10000 nM and an IC50 (NLRP3 inflammasome) of 1160 nM.
Cc1nn(CC(=O)NCc2cccnc2)c(=O)c2cc(C3CC3)nn12 [Final Cpd 49] showed an EC50 (TNF) greater than 10000 nM and an IC50 (NLRP3 inflammasome) greater than 10000 nM.
Work on CC(C)c1nn(CC(=O)N[C@H]2CN(C3CCC3)CC[C@H]2O)c(=O)c2cc(C3CC3)nn12 [Final Cpd 191, N-((3 S,4R)-1-cyclobutyl-4-hydroxypiperidin-3-yl)-2-(2-cyclopropyl-7-isopropyl-4-oxopyrazolo[1,5-d][1,2,4]triazin-5(4H)-yl)acetamide] yielded an EC50 (TNF) greater than 10000 nM.
For CC(C)c1nn(CC(=O)Nc2ccncn2)c(=O)c2cc(N(C)C)nn12 [Final Cpd 22], the EC50 (TNF) was greater than 10000 nM and the IC50 (NLRP3 inflammasome) was 1350 nM.
For C[C@]1(O)C[C@@H](NC(=O)Cn2nc(CCCC(F)(F)F)n3nc(C4CC4)cc3c2=O)C1 [Final Cpd 195, 2-(2-cyclopropyl-4-oxo-7-(4,4,4-trifluorobutyl)pyrazolo[1,5-d][1,2,4]triazin-5(4H)-yl)-N-((ls,3s)-3-hydroxy-3-methylcyclobutyl)acetamide], the EC50 (TNF) was greater than 10000 nM and the IC50 (NLRP3 inflammasome) was greater than 10000 nM.
In the case of Cc1cc(NC(=O)Cn2nc(C(C)C)n3nc(C4CC4)cc3c2=O)nc(C)n1 [Final Cpd 137], the EC50 (TNF) is reported as greater than 10000 nM and the IC50 (NLRP3 inflammasome) is reported as 1230 nM.
CC(C)c1nn(CC(=O)Nc2ccn3ncnc3c2)c(=O)c2cc(C3CC3)nn12 [Final Cpd 103] showed an EC50 (TNF) greater than 10000 nM and an IC50 (NLRP3 inflammasome) of 560 nM.
In the case of CC(C)c1nn(CC(=O)Nc2ccc(=O)n(CC3CC3)c2)c(=O)c2cc(C3CC3)nn12 [Final Cpd 35], the EC50 (TNF) is reported as greater than 10000 nM and the IC50 (NLRP3 inflammasome) is reported as 380 nM.
CCOC(=O)C1CC(Cc2cc3c(=O)n(CC(=O)Nc4ccnnc4)nc(C(C)C)n3n2)C1 (centres unmarked) [Final Cpd 177, ethyl 3-((7-isopropyl-4-oxo-5-(2-oxo-2-(pyridazin-4-ylamino)ethyl)-4,5-dihydropyrazolo[1,5-d][1,2,4]triazin-2-yl)methyl)cyclobutane-1-carboxylate] showed an IC50 (NLRP3 inflammasome) of 2060 nM.
